In patent EP4714953A1, “MELANOCORTIN 2-TYPE RECEPTOR ANTAGONIST” (Scohia Pharma, Inc., priority 2023, dated 2024):

How the values were obtained:
human MC2R = target: T1, human MC2R (Homo sapiens, UniProt Q01718); experiment: Measurement of human MC2R inhibitory activity using intracellular cAMP concentration as an indicator; assay type: cell-based; settings: test compound at 1 µM; GeneBLAzer MC2R-CRE-bla CHO-K1 cells; ACTH (Human 1-24) final concentration 3 pM; intracellular cAMP by HTRF; read-out: MC2R inhibition rate (% of inhibition)
T1 construct: host or cells: GeneBLAzer MC2R-CRE-bla CHO-K1 cells
How it was run: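 MC2R-CRE-bla CHO-K1 cells at 1,500/well in HBSS with 10 mM HEPES pH 7.5, 0.01% BSA and 500 µM IBMX, preincubated 20 min with compound, then stimulated with 3 pM ACTH(1-24) for 30 min at room temperature. cAMP read by HTRF; % inhibition from the ACTH-stimulated and unstimulated windows.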

[1] = test system: ACTH-induced corticosterone secretion; experiment: Suppressive action of ACTH-induced corticosterone secretion in mice; assay type: in vivo; settings: 10 mg/kg, p.o.; male ICR mice; ACTH (1-24) 100 µg/kg subcutaneously 1 hr later; AUC up to 2 hr after ACTH administration
Procedure: Experimental Example 2: Suppressive action of ACTH-induced corticosterone secretion in mice
Nine-week-old male ICR mice (CHARLES RIVER LABORATORIES JAPAN, INC.) were used in the test.
The mice were assigned to each group based on body weight, with 5 mice per group. Test compounds were suspended in 0.5% (w/v) methylcellulose solution. ACTH (1-24) (A0948, LKT Laboratories, Inc.) was dissolved in saline. The test compound (10 mg/kg) or vehicle was orally administered to mice, and 1 hr later, ACTH solution (100 µg/kg) was administered subcutaneously. Blood was collected from the tail vein before ACTH administration and 0.5, 1, and 2 hr after administration, and corticosterone concentration in plasma was measured using an ELISA kit (EC3001-1, Assaypro). Using the plasma corticosterone concentration at each time point, the area under the blood concentration-time curve up to 2 hr after administration (AUC0-2h) was calculated.

T1 sequence (Q01718 whole entry): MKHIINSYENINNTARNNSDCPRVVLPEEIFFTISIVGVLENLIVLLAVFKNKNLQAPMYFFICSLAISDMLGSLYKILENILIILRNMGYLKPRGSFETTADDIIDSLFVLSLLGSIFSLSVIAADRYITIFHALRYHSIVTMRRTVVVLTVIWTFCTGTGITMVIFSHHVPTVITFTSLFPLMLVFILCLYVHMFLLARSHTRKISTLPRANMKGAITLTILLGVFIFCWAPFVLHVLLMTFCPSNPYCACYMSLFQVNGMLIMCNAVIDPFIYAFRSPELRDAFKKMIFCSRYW
T1 sequence (Q8TCY5 whole entry partner): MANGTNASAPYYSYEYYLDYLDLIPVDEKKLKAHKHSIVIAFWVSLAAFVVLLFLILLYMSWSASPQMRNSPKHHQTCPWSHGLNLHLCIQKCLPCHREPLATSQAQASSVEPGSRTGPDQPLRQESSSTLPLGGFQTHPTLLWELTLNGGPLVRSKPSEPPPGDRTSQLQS

SMILES | inhibition at 1 µM (human MC2R) | plasma corticosterone AUC0-2h (% of vehicle, mean±S.D.) [1]
CCOc1ncccc1-c1ccc(N2C[C@H]3CN(c4ccc(Cl)cc4C(F)(F)F)C(=O)N3C[C@H]2CC)c(C(=O)NCC2(O)COC2)n1 [Example 30, 3-[(6R,8aS)-2-[4-chloro-2-(trifluoromethyl)phenyl]-6-ethyl-3-oxo-5,6,8,8a-tetrahydro-1H-imidazo[1,5-a]pyrazin-7-yl]-6-(2-ethoxypyridin-3-yl)-N-[(3-hydroxyoxetan-3-yl)methyl]pyridine-2-carboxamide] | 100% | 8.6 ± 2.4 % of vehicle
CCOc1ncccc1-c1ccc(N2C[C@H]3CN(c4ccc(Cl)cc4C(F)(F)F)C(=O)N3C[C@H]2CC)c(C(=O)N[C@@H]2CCNC2)n1 [Example 31, 3-[(6R,8aS)-2-[4-chloro-2-(trifluoromethyl)phenyl]-6-ethyl-3-oxo-5,6,8,8a-tetrahydro-1H-imidazo[1,5-a]pyrazin-7-yl]-6-(2-ethoxypyridin-3-yl)-N-[(3R)-pyrrolidin-3-yl]pyridine-2-carboxamide] | 100% | 61.1 ± 7.3 % of vehicle
CCOc1ncccc1-c1ccc(N2C[C@H]3CN(c4ccc(Cl)cc4C(F)(F)F)C(=O)N3C[C@H]2CC)c(C(=O)NC[C@H](C)O)n1 [Example 34, 3-[(6R,8aS)-2-[4-chloro-2-(trifluoromethyl)phenyl]-6-ethyl-3-oxo-5,6,8,8a-tetrahydro-1H-imidazo[1,5-a]pyrazin-7-yl]-6-(2-ethoxypyridin-3-yl)-N-[(2S)-2-hydroxypropyl]pyridine-2-carboxamide] | 96% | 15.6 ± 4.9 % of vehicle
CCOc1ncccc1-c1ccc(N2C[C@H]3CN(c4ccc(Cl)cc4C(F)(F)F)C(=O)N3C[C@H]2CC)c(C(=O)NCC(=O)NC)n1 [Example 37, 3-[(6R,8aS)-2-[4-chloro-2-(trifluoromethyl)phenyl]-6-ethyl-3-oxo-5,6,8,8a-tetrahydro-1H-imidazo[1,5-a]pyrazin-7-yl]-6-(2-ethoxypyridin-3-yl)-N-[2-(methylamino)-2-oxoethyl]pyridine-2-carboxamide] | 100% | 14.0 ± 1.8 % of vehicle
CCOc1ncccc1-c1ccc(N2C[C@H]3CN(c4ccc(Cl)cc4C(F)(F)F)C(=O)N3C[C@H]2CC)c(C(=O)N[C@H]2CNC(=O)C2)n1 [Example 38, 3-[(6R,8aS)-2-[4-chloro-2-(trifluoromethyl)phenyl]-6-ethyl-3-oxo-5,6,8,8a-tetrahydro-1H-imidazo[1,5-a]pyrazin-7-yl]-6-(2-ethoxypyridin-3-yl)-N-[(3R)-5-oxopyrrolidin-3-yl]pyridine-2-carboxamide] | 100% | 14.2 ± 4.3 % of vehicle
CCOc1ncccc1-c1ccc(N2C[C@H]3CN(c4ccc(Cl)cc4C(F)(F)F)C(=O)N3C[C@H]2CC)c(C(=O)N[C@@H]2CCNC2=O)n1 [Example 47, 3-[(6R,8aS)-2-[4-chloro-2-(trifluoromethyl)phenyl]-6-ethyl-3-oxo-5,6,8,8a-tetrahydro-1H-imidazo[1,5-a]pyrazin-7-yl]-6-(2-ethoxypyridin-3-yl)-N-[(3R)-2-oxopyrrolidin-3-yl]pyridine-2-carboxamide] | 100% | 17.5 ± 4.4 % of vehicle
CCOc1ncccc1-c1ccc(N2C[C@H]3CN(C4(C(F)(F)F)CCC4)C(=O)N3C[C@H]2CC)c(C(=O)N[C@@H]2CC(=O)N(C)C2)n1 [Example 65, 3-[(6R,8aS)-6-ethyl-3-oxo-2-[1-(trifluoromethyl)cyclobutyl]-5,6,8,8a-tetrahydro-1H-imidazo[1,5-a]pyrazin-7-yl]-6-(2-ethoxy-3-pyridinyl)-N-[(3R)-1-methyl-5-oxopyrrolidin-3-yl]pyridine-2-carboxamide] | 89% | 
CCOc1ccccc1-c1ccc(N2C[C@H]3CN(C4(C(F)(F)F)CCC4)C(=O)N3C[C@H]2CC)c(C(=O)N[C@@H]2CC(=O)N(C)C2)n1 [Example 66, 3-[(6R,8aS)-6-ethyl-3-oxo-2-[1-(trifluoromethyl)cyclobutyl]-5,6,8,8a-tetrahydro-1H-imidazo[1,5-a]pyrazin-7-yl]-6-(2-ethoxyphenyl)-N-[(3R)-1-methyl-5-oxopyrrolidin-3-yl]pyridine-2-carboxamide] | 97% | 

Now from value to compound, other results behind:

inhibition at 1 µM (human MC2R) | SMILES | plasma corticosterone AUC0-2h (% of vehicle, mean±S.D.) [1]
100% | CCOc1ncccc1-c1ccc(N2C[C@H]3CN(c4ccc(Cl)cc4C(F)(F)F)C(=O)N3C[C@H]2CC)c(C(=O)N[C@@H]2CC(=O)N(C)C2)n1 [Example 49, 3-[(6R,8aS)-2-[4-chloro-2-(trifluoromethyl)phenyl]-6-ethyl-3-oxo-5,6,8,8a-tetrahydro-1H-imidazo[1,5-a]pyrazin-7-yl]-6-(2-ethoxypyridin-3-yl)-N-[(3R)-1-methyl-5-oxopyrrolidin-3-yl]pyridine-2-carboxamide] | 7.7 ± 2.5 % of vehicle
100% | CCOc1ccccc1-c1ccc(N2C[C@H]3CN(c4ccc(Cl)cc4C(F)(F)F)C(=O)N3C[C@H]2C)c(C(=O)N[C@@H]2CC(=O)N(C)C2)n1 [Example 63, 3-[(6R,8aS)-2-[4-chloro-2-(trifluoromethyl)phenyl]-6-methyl-3-oxo-5,6,8,8a-tetrahydro-1H-imidazo[1,5-a]pyrazin-7-yl]-6-(2-ethoxyphenyl)-N-[(3R)-1-methyl-5-oxopyrrolidin-3-yl]pyridine-2-carboxamide] | 
95% | COc1ccccc1-c1ccc(N2C[C@H]3CN(c4ccc(Cl)cc4C(F)(F)F)C(=O)N3C[C@H]2C)c(C(=O)N[C@@H]2CC(=O)N(C)C2)n1 [Example 64, 3-[(6R,8aS)-2-[4-chloro-2-(trifluoromethyl)phenyl]-6-methyl-3-oxo-5,6,8,8a-tetrahydro-1H-imidazo[1,5-a]pyrazin-7-yl]-6-(2-methoxyphenyl)-N-[(3R)-1-methyl-5-oxopyrrolidin-3-yl]pyridine-2-carboxamide] | 
94% | CCOc1ccccc1-c1ccc(N2C[C@H]3CN(c4ccc(Cl)cc4C(F)(F)F)C(=O)N3C[C@H]2CC)c(C(=O)N[C@@H]2CC(=O)N(C)C2)n1 [Example 67, 3-[(6R,8aS)-2-[4-chloro-2-(trifluoromethyl)phenyl]-6-ethyl-3-oxo-5,6,8,8a-tetrahydro-1H-imidazo[1,5-a]pyrazin-7-yl]-6-(2-ethoxyphenyl)-N-[(3R)-1-methyl-5-oxopyrrolidin-3-yl]pyridine-2-carboxamide] | 
96% | CC[C@@H]1CN2C(=O)N(c3ccc(Cl)cc3C(F)(F)F)C[C@@H]2CN1c1ccc(-c2ccccc2OC)nc1C(=O)N[C@@H]1CC(=O)N(C)C1 [Example 68, 3-[(6R,8aS)-2-[4-chloro-2-(trifluoromethyl)phenyl]-6-ethyl-3-oxo-5,6,8,8a-tetrahydro-1H-imidazo[1,5-a]pyrazin-7-yl]-6-(2-methoxyphenyl)-N-[(3R)-1-methyl-5-oxopyrrolidin-3-yl]pyridine-2-carboxamide] | 
92% | CC[C@@H]1CN2C(=O)N(c3ccc(Cl)cc3C(F)(F)F)C[C@@H]2CN1c1ccc(-c2cccnc2OC)nc1C(=O)N[C@@H]1CC(=O)N(C)C1 [Example 69, 3-[(6R,8aS)-2-[4-chloro-2-(trifluoromethyl)phenyl]-6-ethyl-3-oxo-5,6,8,8a-tetrahydro-1H-imidazo[1,5-a]pyrazin-7-yl]-6-(2-methoxy-3-pyridinyl)-N-[(3R)-1-methyl-5-oxopyrrolidin-3-yl]pyridine-2-carboxamide] | 
